Reference: patent US7589077B2, “Antiviral nucleosides” (priority 2001, dated 2009)
Converted amounts (≈) assume the structure as drawn. Read-outs that look alike come from different tables or passages of the source.

Assays:
[1] = tested on: duck hepatitis B virus (DHBV); assay: DHBV DNA replication in primary duck hepatocytes (dot blot hybridization); assay type: cell-based
Protocol: A series of compounds were synthesized and assayed for activity against duck hepatitis B virus (DHBV). […] Test compounds were added to the hepatocyte cultures on day 2 and maintained in culture with media changed every second day until day 12. Cell were harvested at day 14 and lysed with buffer containing 1% SDS. DNA was isolated from the lysate and dot blot hybridization was performed using a DHBV (32P) DNA probe. […]
(§1) The compounds were assayed for a) their ability to inhibit DHBV DNA replication in duck hepatocytes, b) their ability to inhibit HBV DNA replication in HepG2 2.2.15 cells, c) the cell cytotoxicity in Vero cells, the cell viability in HFF cells, d) the cell proliferation in HFF cells, and e) the T cell proliferation (purified T cells, PHA stimulated). 3-TC was used as a control.

[2] = tested on: human HBV; assay: HBV DNA replication in HepG2 2.2.15 cells; assay type: cell-based, hepatitis B virus
Protocol: as §1, with “control. Additional compounds described below in the Preparative Examples section were also tested, and the results are shown in Tables 2-4 below. The reference numbers for the compounds are found in the Preparative Examples.” for “control.”

[3] = tested on: Vero cells; assay: Cell cytotoxicity in Vero cells; assay type: cell-based
Protocol: as §1

[4] = tested on: HFF cells; assay: Cell viability in HFF cells (neutral red); assay type: cell-based, human
Protocol: (§2) Twenty-four hours prior to assay HFF cells were plated into 96 well plates at a concentration of 2.5×10^4 cells per well. […] The plates were incubated for 7 days in a CO2 incubator at 37° C. At this time the media/drug was aspirated and 200 μL/well of 0.01% neutral red in Dulbecco's Phosphate Buffered Saline (DPBS) was added. This was incubated in the CO2 incubator for 2 h, the dye was aspirated and the cells were washed using a Nunc Plate Washer. After removing the DPBS wash, […] of 50% EtOH: 1% glacial acetic acid in water was added. The plates were rotated for 15 min. and the optical densities were read at 550 nm on a plate reader.

[5] = tested on: HFF cells; assay: Cell proliferation assay in HFF cells; assay type: cell-based, human; details: Table 2; for IC50: Homo sapiens, HFF
Protocol: The media from the wells was then aspirated and 2 mL of each drug concentration was then added to each well. The cells were incubated in a CO2 incubator at 37° C. for 72 h. At the end of this time, the media-drug solution was removed and the cells were washed. […] The cell-media mixture was then pipetted up and down vigorously to break up the cell suspension and 0.2 mL of the mixture was added to 9.8 mL of isoton III and counted using a Coulter Counter. Each sample was counted three times with three replicate wells per sample.

[6] = tested on: whole human PBLs; assay: Cell proliferation, whole human PBLs; assay type: cell-based; details: Table 1
[7] = tested on: HSV-1 (KOS) HSV-TK+; assay: HSV-1 (KOS) HSV-TK+ antiviral assay; assay type: cell-based, Herpes simplex virus type-1; details: Table 4
Protocol: (§3) Cytopathic effect (CPE) inhibition assays for HSV-1, HSV-2, HCMV and VZV were performed as follows: Low passage human foreskin fibroblasts (HFF) cells were seeded into 96 well tissue culture plates 24 h prior to use at a cell concentration of 2.5×10^4 cells per mL in 0.1 mL of minimal essential medium (MEM) supplemented with 10% fetal bovine serum (FBS). The cells were then incubated for 24 h at 37° C. in a CO2 incubator. After incubation, the medium was removed and 100 μL of MEM containing 2% FBS was added to all but the first row. In the first row, 125 μL of experimental drug was added in triplicate wells. Medium alone was added to both cell and virus control […]. After incubation, the medium was removed and 100 μl of MEM containing 2% FBS was added to all but the first row. Medium alone was added to both cell and virus control wells. 125 μl of Experimental drug was added in triplicate wells. The drug in the first row of wells was then diluted serially 1:5 throughout the remaining wells by transferring 25 μL using the Cetus Liquid Handling Machine. After dilution of drugs, 100 μL of the appropriate virus concentration was added to each well, excluding the cell control wells which received 100 μL of MEM. For HSY-1 and HSV-2 assays, the virus concentration utilized was 1000 PFU's per well. For CMV and VZV assays, the virus concentration added was 2500 PFU's per well. The plates were then incubated at 37° C. in a CO2 incubator for 3 days for HSV-1 and HSV-2, 10 days for VZV, or 14 days for CMV. After the incubation period, media was aspirated and the cells stained with a 0.1% crystal violet solution for 30 min. The stain was then removed and the plates were allowed to dry 24 h and then read on a Skatron Plate Reader at 620 nm.

[8] = tested on: HSV-1 (KOSSB) HSV-TK−; assay: microbe, parasite or virus in culture; assay type: cell-based, Herpes simplex virus type-1; details: Table 4
Protocol: as §3, with “The” for “Cytopathic effect (CPE) inhibition assays for HSV-1, HSV-2, HCMV and VZV were performed as follows: Low passage human foreskin fibroblasts (HFF) cells were seeded into 96 well tissue culture plates 24 h prior to use at a cell concentration of 2.5×10^4 cells per mL in 0.1 mL of minimal essential medium (MEM) supplemented with 10% fetal bovine serum (FBS). The”

[9] = tested on: HSV-1 (E-377); assay: CPE inhibition assay HSV-1 (E-377) in HFF cells; assay type: cell-based, Herpes simplex virus type-1; details: Table 4
Protocol: as §3

[10] = tested on: HSV-2 (MS); assay: CPE inhibition assay HSV-2 (MS) in HFF cells; assay type: cell-based, Herpes simplex virus type-2; details: Table 4
Protocol: as §3

[11] = tested on: VZV (Ellen); assay: CPE inhibition assay VZV (Ellen) in HFF cells; assay type: cell-based, varicella zoster virus; details: for EC50: Human alphaherpesvirus 3, HFF, Table 2
Protocol: as §3

[12] = tested on: HCMV (AD169); assay: CPE inhibition assay HCMV (AD169) in HFF cells; assay type: cell-based, human cytomegalovirus; details: for EC50: Human betaherpesvirus 5, AD169, HFF, Table 2
Protocol: as §3

[13] = tested on: Epstein-Barr Virus (EBV); assay: EBV immunofluorescence assay in DAUDI cells (P3HR-1 strain); assay type: cell-based
Protocol: The immunofluorescence assay, using monoclonal antibodies, for Epstein-Barr Virus (EBV) was performed as follows: DAUDI cells were infected with the P3HR-1 strain of EBV and the test drug was added after adsorption (45 min. at 37° C.) and washing of the cell cultures. These cultures were then incubated for 2 days in complete medium to allow viral gene expression. Following the 48 h incubation period, the number of cells in each sample were counted and smears were made. Monoclonal antibodies to the different early antigen (EA) components and VCA were than added to the cells, incubated and washed. This was followed by the addition of a fluorescein conjugated rabbit anti mouse Ig antibodies. The number of fluorescence positive cells in the smears were counted and the total number of cells in the cultures positive for EA or VCA were then calculated and compared.

[14] = Cell cytotoxicity in Vero cells; assay type: cell-based; details: African green monkey, Vero cells
Protocol: as §1

[15] = Cell viability in HFF cells (neutral red); assay type: cell-based, human; details: human, HFF cells
Protocol: as §2

[16] = Duck hepatitis B virus, Hepatocyte, read-out: % Inh. of DHBV DNA in duck hepatocytes @ 10 μg/ml
[17] = Duck hepatitis B virus, Hepatocyte, Table 2, value in brackets, read-out: DHBV DNA in duck hepatocytes [EC50, μg/ml]

| Molecule | inhibition at 10 µg/mL [1, 16] | EC50 [1, 17] | CC50 ([14]; Table 2) | CC50 at 7 days ([15]; Table 2) | IC50 [5] | EC50 [11] | EC50 [12] | other results |
| --- | --- | --- | --- | --- | --- | --- | --- | --- |
| C=C(N=[N+]=[N-])c1cn(COC(CO)CO)c(=O)[nH]c1=O [Compound 13] |  |  |  |  |  |  |  | DHBV DNA in duck hepatocytes [EC50, μg/ml] ([1]; Table 2, value in brackets): 0.01 to 0.1 µg/mL; % Inh. of DHBV DNA in duck hepatocytes @ 10 μg/ml ([1]; Table 2, 10 μg/ml): 85.6%; % Inh. of human HBV DNA replication in HepG2 2.2.15 cells @ 0.01 μg/ml (right) ([2]; Table 2, 0.01 μg/ml): 17.0%; % Inh. of human HBV DNA replication in HepG2 2.2.15 cells @ 0.1 μg/ml (left) ([2]; Table 2, 0.1 μg/ml): 75.4%; Cell Cytotoxicity, Vero cells CC50 ([3]; Table 2): >200 µg/mL; Cell viability HFF cells CC50 ([4]; Table 2): >100 µg/mL; Cell proliferation, HFF cells IC50 [5]: >100 µg/mL |
| (5S,6S)-5-bromo-O^6-5′-cyclo-5,6-dihydro-3′-azido-3′-deoxythymidine [Compound R-1] |  |  |  |  |  |  |  | EC50 (DHBV DNA replication in duck hepatocytes) ([1]; Table 1): (EC50 = 0.035 μg/ml; IC50 [6]: 34 µM; HSV-1 (KOS) HSV-TK+ EC50 [7]: 10 to 25 µg/mL; HSV-1 (KOSSB) HSV-TK− EC50 [8]: 1 to 10 µg/mL; HSV-1 (E-377) EC50, μg/ml [9]: 20 μg/ml; HSV-2 (MS) EC50 [10]: 20 µg/mL; VZV (Ellen) EC50 ([11]; Table 4): >100 µg/mL; HCMV (AD-169) EC50 ([12]; Table 4): 20 µg/mL; EBV EC50 ([13]; Table 4): 1.4 µg/mL |
| [N-]=[N+]=NC(CCl)c1cn(COC(CO)CO)c(=O)[nH]c1=O (stereo not drawn) [Compound 10b, 1-[(2-Hydroxy-1-(hydroxymethyl)ethoxy)methyl]-5-(1-azido-2-chloroethyl)uracil] | 75% | 1 to 5 µg/mL | > 200 µg/mL | > 100 µg/mL | > 100 µg/mL | 5 µg/mL (≈ 15.6 µM) | 10 µg/mL (≈ 31.3 µM) |  |
| [N-]=[N+]=NC(CCl)c1cn(CCC(CO)CO)c(=O)[nH]c1=O (stereo not drawn) [Compound 21b, 1-[4-Hydroxy-3-(hydroxymethyl)-1-butyl]-5-(1-azido-2chloroethyl)uracil] | 84% | 0.1 to 0.5 µg/mL | > 200 µg/mL | > 100 µg/mL | > 100 µg/mL | 6 µg/mL (≈ 18.9 µM) | 1 µg/mL (≈ 3.15 µM) |  |
| [N-]=[N+]=NC(CI)c1cn(COC(CO)CO)c(=O)[nH]c1=O (stereo not drawn) [Compound 10c, 1-[(2-Hydroxy-1-(hydroxymethyl)ethoxy)methyl]-5-(1-azido-2-iodoethyl)uracil] | 75% | 1 to 5 µg/mL | > 200 µg/mL | > 100 µg/mL | > 100 µg/mL | 1 µg/mL (≈ 2.43 µM) | 10 µg/mL (≈ 24.3 µM) |  |
| CCC1(F)C(=O)NC(=O)N([C@@H]2O[C@H](CO)[C@@H](O)[C@@H]2F)C1OC (stereo partly drawn) [RC-1, 5-Ethyl-5-fluoro-6-methoxy-5,6-dihydro-2′-arabinofluoro-2′-deoxyuridine] |  |  |  |  |  |  |  | Cell Cytotoxicity, Vero cells CC50 ([3]; Table 5): >100 µg/mL; Cell viability HFF cells CC50 ([4]; Table 5): >100 µg/mL; EBV EC50 ([13]; Table 5): <0.08 µg/mL; EBV EC90 ([13]; Table 5, in parentheses): (EC90 = <0.08) μg/ml |
| CC1(F)C(=O)NC(=O)N2C3CC(N=[N+]=[N-])C(COC21)O3 [Compound R-13, (5R,6S)5-fluoro-O^6-5′-cyclo-5,6-dihydro-3′-azido-3′-deoxythymidine] |  |  |  |  |  |  |  | % Inhibition of DHBV DNA replication in duck hepatocytes @10 μg/ml [1]: 36.0%; CC50 ([3]; Table 1): > 700 µM; HSV-1 (KOS) HSV-TK+ EC50 [7]: >25 µg/mL; HSV-1 (KOSSB) HSV-TK− EC50 [8]: >50 µg/mL |
| Nc1ccn([C@@H]2CS[C@H](CO)O2)c(=O)n1 [Compound 3-TC, lamivudine, reference compound] | 96% | 0.01 to 0.05 µg/mL |  |  |  |  |  | inhibition at 1 µg/mL ([1]; Duck hepatitis B virus, Hepatocyte, read-out: % Inhibition of DHBV DNA in duck hepatocytes @1.0 μg/ml): 95%; inhibition at 10 µg/mL ([1]; Duck hepatitis B virus, Hepatocyte, read-out: % Inhibition of DHBV DNA in duck hepatocytes @10.0 μg/ml): 100%; EC50 ([1]; Duck hepatitis B virus, Hepatocyte, Table 3a, read-out: % Inhibition of DHBV DNA in duck hepatocytes EC50): 0.07 µM; inhibition at 0.1 µg/mL ([2]; Hepatitis B virus, HepG2 2.2.15, read-out: % Inh. of human HBV DNA replication in HepG2 2.2.15 cells @ 0.1 μg/ml (left)): 90%; CC50 ([14]; Table 5): > 100 µg/mL; CC50 at 7 days ([15]; Table 5): > 100 µg/mL |
| C=C(N=[N+]=[N-])c1cn(COCCO)c(=O)[nH]c1=O [Compound 7, 1-[(2-hydroxyethoxy)methyl]-5-(1-azidovinyl)-uracil] | 84% | 0.01 to 0.1 µg/mL | > 100 µg/mL | > 100 µg/mL | > 100 µg/mL |  |  |  |
| C=C(N=[N+]=[N-])c1cn(CCC(CO)CO)c(=O)[nH]c1=O [Compound 26, 1-[4-Hydroxy-3-(hydroxymethyl),1-butyl]-5-(1-azidovinyl)uracil] | 93% | 0.01 to 0.05 µg/mL | > 200 µg/mL | > 100 µg/mL | > 100 µg/mL |  |  |  |
